Test results published in patent US20260226031A1, “NOVEL COMPOUNDS” (NRG THERAPEUTICS LTD., priority 2023, published 2026).

Key:
[1] = tested on: mPTP; experiment: mPTP activity (Ca2+ retention) assay in isolated rat liver mitochondria; assay type: biochemical; details: isolated rat liver mitochondria; Fluo5N fluorescence at 10 min after CaCl2 (75 μM) bolus; DMSO 0%, 5 μM cyclosporin A 100% inhibition
Source text: Pharmacological inhibition or modulation of the mPTP can be measured in well characterised ‘Ca^2+ retention’ assays performed in isolated mitochondria. In vitro, isolated mitochondria rapidly sequester exogenous Ca^2+ until the intramitochondrial Ca^2+ concentration reaches the threshold for mPTP activation. Once the pore is activated, mitochondrial integrity is compromised and the stored Ca^2+ is released. The distribution of Ca^2+ between extra- and intra-mitochondrial compartments can be measured in real time with the use of membrane-impermeant Ca^2+ sensitive fluorescent dyes. Depending on the configuration of the assay, inhibition or modulation of the mPTP either delays the opening of the pore or increases the concentration of Ca^2+ required to induce mPTP opening.
MPTP activity was measured in mitochondria freshly isolated from female Sprague Dawley (250 to 300 gram) rat livers using the following method. Cervical dislocation was performed on the rat. The liver was then perfused in-situ with ~40 ml cold Dulbecco's Phosphate Buffered Saline (DPBS) prior to dissection and transferred into 30 ml Isolation Buffer (250 mM Sucrose, 10 mM KCl, 1 mM EGTA, 1 mM EDTA, 25 mM HEPES, adjusted to pH 7.5 with 1M NaOH). Each lobe of the liver was then removed from the buffer, minced using tweezers and a scalpel into ~5 mm pieces then transferred into a 50 ml Potterton dounce homogenization tube on ice containing 30 ml ice-cold centrifugation buffer (300 mM Trehalose, 25 mM HEPES, 1 mM EGTA, 1 mM EDTA, 10 mM KCl, adjusted to pH 7.5 with 1M NaOH and supplemented with 0.1% bovine serum albumin (BSA) and complete protease inhibitor cocktail (one tablet of inhibitor per 50 mls of buffer). Homogenisation was carried out using a Teflon® pestle at 1800 rpm. The slurry was centrifuged at 800 g for 10 min at 4° C., then the supernatant centrifuged at 10,000 g for 10 min. The pellet was washed once with FLIPR assay buffer (75 mM Mannitol, 25 mM Sucrose, 5 mM Potassium Phosphate Monobasic, 20 mM Tris base, 100 mM KCl, 0.1% BSA adjusted to pH 7.4 with 5M HCl) centrifuged again, then resuspended in FLIPR assay buffer to a concentration of 8.8 mg/ml protein.
Tested compounds (10 mM stock in DMSO) were serially diluted in DMSO in half log steps to generate 10 test concentrations (final concentrations in assay 30 μM to 1 nM). An intermediate dilution of 5 μl DMSO samples into 247 μl FLIPR assay buffer was carried out prior to transfer of 5 μl into duplicate wells of a 384 well polypropylene assay plate. Control wells were 0.5% (v/v) DMSO and 5 μM cyclosporin A.
A stock mitochondria/Fluo5N assay solution was prepared in 5.6 ml FLIPR assay buffer (at RT) supplemented with succinate disodium salt (10 mM), rotenone (1 μM), Fluo5N pentapotassium salt (2 μM) and 1 ml mitochondria suspension, then transferred (15 μl) into the assay plate containing test compounds and incubated for 10 min at RT. Assay plates were processed for fluorescence detection on either a FLIPR Tetra (Molecular Devices) or CLARIOstar (BMG) plate reader. For kinetic fluorescence detection on the FLIPR, dye fluorescence was measured every 3 sec for a total of 10 min. After 12 sec, a 2.5 μl bolus of CaCl2 (75 μM) was added from a source plate containing 675 μM CaCl2 in FLIPR assay buffer. Alternatively, the 2.5 μl addition of CaCl2 was performed using a Viaflow 384, plates were incubated at RT for 10 min, and dye fluorescence measured after 10 min on the CLARIOstar plate reader. pIC50 values for tested compounds were calculated using the fluorescence value collected at the 10 min timepoint on either plate reader, with % inhibition calculated using the DMSO control and cyclosporin A values as 0 and 100% respectively.

[2] = tested on: mPTP; experiment: mPTP activity (Ca2+ retention) assay in isolated rat brain mitochondria; assay type: biochemical; details: isolated rat brain mitochondria; Fluo5N fluorescence at 10 min after Ca2+ (75 μM) bolus
Experimental: MPTP activity was measured in brain mitochondria freshly isolated from female Sprague Dawley (250 to 300 gram) rats. Anaesthetised rats were perfused in-situ with ~40 ml cold Dulbecco's Phosphate Buffered Saline (DPBS), then brains dissected and transferred into 30 ml Isolation Buffer (225 mM mannitol, 75 mM sucrose, 1 mM EGTA, adjusted to pH 7.4 with 1M NaOH). The brain was minced using tweezers and a scalpel into ~5 mm pieces then transferred into a 50 ml Potterton Dounce homogenization tube on ice containing 10 ml ice-cold isolation buffer (as above with addition of Complete Protease inhibitor; 1 tablet per 50 ml buffer). Homogenisation was carried out using a Teflon® pestle at 1800 rpm. The slurry was centrifuged at 2000 g for 10 min at 4° C., then the supernatant centrifuged at 12,000 g for 9 min. The pellet was resuspended with a dounce homogeniser in isolation buffer as above but with the addition of 0.02% digitonin, centrifuged at 12,000 g for 11 min and finally resuspended in 5 ml modified isolation buffer (as above but with EGTA reduced to 0.1 mM).
Test compounds were prepared in 384 well polypropylene assay plates as described above for the liver mitochondria assay. A stock mitochondria/Fluo5N assay solution was prepared in 5.6 ml assay buffer (120 mM mannitol, 40 mM MOPS, 5 mM KH2PO4, 60 mM KCl, 10 mM pyruvate, 2 mM malate, 2 mM MgCl2, 20 μM ADP, 1.26 μM oligomycin A, adjusted to pH 7.4) supplemented with Fluo5N pentapotassium salt (2 μM) and 1 ml mitochondria suspension, then transferred (15 μl) into the assay plate containing test compounds and incubated for 10 min at RT. Assay plates were then transferred to a FLIPR Tetra plate reader (Molecular Devices). Dye fluorescence was then measured every 3 sec for a total of 10 min.

Row | Structure (SMILES) | mPTP Rat liver pIC50* [1] | mPTP Rat brain pIC50 [2]
1 | CC1(C)CN(C(=O)c2cncc(=O)[nH]2)CCC1c1ccccc1 (stereo not shown) [Example 9, 6-(3,3-dimethyl-4-phenylpiperidine-1-carbonyl)pyrazin-2(1H)-one] | 5.28 | 6.61
2 | O=C(c1cncc(O)c1)N1CC(c2ccccc2)C2(CCC2)C1 (stereo not shown) [Example 1a, (5-hydroxypyridin-3-yl)(8-phenyl-6-azaspiro[3.4]octan-6-yl)methanone] | 5.68 | 6.73
3 | O=C(c1nccc(=O)[nH]1)N1CC(c2ccccc2)C2(CCC2)C1 (single isomer, unassigned) [Example 21a, 2-[8-phenyl-6-azaspiro[3.4]octane-6-carbonyl]-3H-pyrimidin-4-one] | 5.94 | 6.98
4 | O=C(c1ccnc(=O)[nH]1)N1CC(c2ccccc2)C2(CCC2)C1 (single isomer, unassigned) [Example 27a, 6-(8-phenyl-6-azaspiro[3.4]octane-6-carbonyl)pyrimidin-2(1H)-one] | 6.11 | 6.34
5 | CCC1CN(C(=O)c2cncc(=O)[nH]2)CC1c1ccccc1 (single isomer, unassigned) [Example 15c, 6-(3-ethyl-4-phenylpyrrolidine-1-carbonyl)pyrazin-2(1H)-one] | 5.24 | 5.93
6 | COc1ccc(C2CN(C(=O)c3cncc(=O)[nH]3)CC23CCC3)cc1 (single isomer, unassigned) [Example 28a, 6-(8-(4-methoxyphenyl)-6-azaspiro[3.4]octane-6-carbonyl)pyrazin-2(1H)-one] | 5.17 | 5.69
7 | O=C(c1nccc(=O)[nH]1)N1CC(c2ccccc2)C2(CC(F)C2)C1 (single isomer, unassigned) [Example 25a, 2-(2-fluoro-8-phenyl-6-azaspiro[3.4]octane-6-carbonyl)pyrimidin-4(3H)-one] | 6.33 | 6.88
8 | CC1(C)CN(C(=O)c2cncc(=O)[nH]2)CC1c1ccccc1 (single isomer, unassigned) [Example 10b, 6-(3,3-dimethyl-4-phenylpyrrolidine-1-carbonyl)pyrazin-2(1H)-one] | 5.19 | 6.07
9 | CC1(C)CN(C(=O)c2cncc(=O)[nH]2)CC1c1ccccc1 (single isomer, unassigned) [Example 10a, 6-(3,3-dimethyl-4-phenylpyrrolidine-1-carbonyl)pyrazin-2(1H)-one] | 6.18 | 7.03

Continued, values first:

Row | mPTP Rat liver pIC50* [1] | mPTP Rat brain pIC50 [2] | Structure (SMILES)
10 | <4.52 | <4.52 | O=C(c1cncc(=O)[nH]1)N1CC(c2ccc(Br)cc2)C2(CCC2)C1 (single isomer, unassigned) [Example 29b, 6-(8-(4-bromophenyl)-6-azaspiro[3.4]octane-6-carbonyl)pyrazin-2(1H)-one]
11 | <4.52 | <4.52 | O=C(c1cncc(=O)[nH]1)N1CC(c2cccc(Cl)c2F)C2(CCC2)C1 (single isomer, unassigned) [Example 33b, 6-(8-(3-chloro-2-fluorophenyl)-6-azaspiro[3.4]octane-6-carbonyl)pyrazin-2(1H)-one]
12 | 6.26 | 6.99 | O=C(c1cc(O)no1)N1CC(c2ccc(F)cc2F)C2(CCC2)C1 (single isomer, unassigned) [Example 42a, (8-(2,4-difluorophenyl)-6-azaspiro[3.4]octan-6-yl)(3-hydroxyisoxazol-5-yl)methanone]
13 | <4.52 | <4.52 | O=C(c1cc(O)no1)N1CC(c2ccc(F)cc2)C2(CCC2)C1 (single isomer, unassigned) [Example 36b, (8-(4-fluorophenyl)-6-azaspiro[3.4]octan-6-yl)(3-hydroxyisoxazol-5-yl)methanone]
14 | <4.52 | 5.19 | O=C(c1noc(=O)[nH]1)N1CC(c2cccc(F)c2F)C2(CCC2)C1 (single isomer, unassigned) [Example 44b, 3-(8-(2,3-difluorophenyl)-6-azaspiro[3.4]octane-6-carbonyl)-1,2,4-oxadiazol-5(4H)-one]
15 | <4.52 | <4.52 | O=C(c1noc(=O)[nH]1)N1CC(c2ccc(F)c(F)c2)C2(CCC2)C1 (single isomer, unassigned) [Example 47b, 3-(8-(3,4-difluorophenyl)-6-azaspiro[3.4]octane-6-carbonyl)-1,2,4-oxadiazol-5(4H)-one]
16 | 5.99 | 7.28 | O=C(c1cncc(=O)[nH]1)N1CC(c2ccc(F)cc2F)C2(CCC2)C1 (single isomer, unassigned) [Example 37a, 6-(8-(2,4-difluorophenyl)-6-azaspiro[3.4]octane-6-carbonyl)pyrazin-2(1H)-one]
17 | <4.52 | <4.52 | O=C(c1cc(O)no1)N1CC(c2cccc(F)c2F)C2(CCC2)C1 (single isomer, unassigned) [Example 39b, (8-(2,3-difluorophenyl)-6-azaspiro[3.4]octan-6-yl)(3-hydroxyisoxazol-5-yl)methanone]
18 | 6.41 | 7.34 | O=C(c1cc(O)no1)N1CC(c2cccc(F)c2)C2(CCC2)C1 (single isomer, unassigned) [Example 38a, (8-(3-fluorophenyl)-6-azaspiro[3.4]octan-6-yl)(3-hydroxyisoxazol-5-yl)methanone]
19 | <4.52 | <4.52 | O=C(c1cc(O)no1)N1CC(c2cccc(F)c2)C2(CCC2)C1 (single isomer, unassigned) [Example 38b, (8-(3-fluorophenyl)-6-azaspiro[3.4]octan-6-yl)(3-hydroxyisoxazol-5-yl)methanone]
20 | 6.39 | 7.34 | O=C(c1cncc(O)n1)N1CC(c2ccccc2)C2(CCC2)C1 (single isomer, unassigned) [Example 6a, (6-hydroxypyrazin-2-yl)(8-phenyl-6-azaspiro[3.4]octan-6-yl)methanone]
